We go through 23 molecules from patent EP1383793B1 (priority 2000, dated 2001).

Like-named read-outs stand apart in the source and are kept apart here. Positions of bridges follow the written chain, without caps; N, C: chain ends. Residues, ends and D or L forms follow the SMILES beside them. No end group written: not given here. *: point of attachment. Biotin = O=C1N[C@H]2[C@H](CS[C@H]2CCCCC(=O)*)N1

Assay [1] has as its target human IGF-1 receptor (HIGF-1R) (Homo sapiens, UniProt P08069). As to the kind of experiment: 125I-IGF-1 competition binding assay on solubilised purified receptor. To be noted: for Ratio: Kd HIGF1R / Kd HIR.
The target of assay [2] is T1, human insulin receptor (HIR) (Homo sapiens, UniProt P06213).
T1 construct: made in house
T1 sequence (P06213 28-758 limits assumed): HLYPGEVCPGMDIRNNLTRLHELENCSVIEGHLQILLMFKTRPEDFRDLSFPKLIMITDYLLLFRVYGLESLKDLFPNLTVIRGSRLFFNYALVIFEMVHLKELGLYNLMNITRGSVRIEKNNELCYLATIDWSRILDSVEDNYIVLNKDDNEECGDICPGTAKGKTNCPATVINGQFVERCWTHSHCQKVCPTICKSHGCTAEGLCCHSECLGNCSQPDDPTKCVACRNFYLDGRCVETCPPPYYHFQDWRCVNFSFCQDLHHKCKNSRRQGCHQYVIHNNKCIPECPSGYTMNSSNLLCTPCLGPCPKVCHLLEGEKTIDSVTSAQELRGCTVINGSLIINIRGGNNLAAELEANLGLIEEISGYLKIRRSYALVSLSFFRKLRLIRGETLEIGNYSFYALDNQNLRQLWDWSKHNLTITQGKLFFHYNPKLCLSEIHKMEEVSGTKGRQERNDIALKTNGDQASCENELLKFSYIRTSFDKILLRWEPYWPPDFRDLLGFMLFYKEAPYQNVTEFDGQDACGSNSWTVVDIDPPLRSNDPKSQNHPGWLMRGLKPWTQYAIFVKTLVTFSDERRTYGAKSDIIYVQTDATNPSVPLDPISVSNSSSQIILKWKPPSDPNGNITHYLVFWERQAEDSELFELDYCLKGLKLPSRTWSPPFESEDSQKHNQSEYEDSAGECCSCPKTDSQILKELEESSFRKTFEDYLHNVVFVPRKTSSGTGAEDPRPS
T1 sequence (P06213 763-1382 limits assumed): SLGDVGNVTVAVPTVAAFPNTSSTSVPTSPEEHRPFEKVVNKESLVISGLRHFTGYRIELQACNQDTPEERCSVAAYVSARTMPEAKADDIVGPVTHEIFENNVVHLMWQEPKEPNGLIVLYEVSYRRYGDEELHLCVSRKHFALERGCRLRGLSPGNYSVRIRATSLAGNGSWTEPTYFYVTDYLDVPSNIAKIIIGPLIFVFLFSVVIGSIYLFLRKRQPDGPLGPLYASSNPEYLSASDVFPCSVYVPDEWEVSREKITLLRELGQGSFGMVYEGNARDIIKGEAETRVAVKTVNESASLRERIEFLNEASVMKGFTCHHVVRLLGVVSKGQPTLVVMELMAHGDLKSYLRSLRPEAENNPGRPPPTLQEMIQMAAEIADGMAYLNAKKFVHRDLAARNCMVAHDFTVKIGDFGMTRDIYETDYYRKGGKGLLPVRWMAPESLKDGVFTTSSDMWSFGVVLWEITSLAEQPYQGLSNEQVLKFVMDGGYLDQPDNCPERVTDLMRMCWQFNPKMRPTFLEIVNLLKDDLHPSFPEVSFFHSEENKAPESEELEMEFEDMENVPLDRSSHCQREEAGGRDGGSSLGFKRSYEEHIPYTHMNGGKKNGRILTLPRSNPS
Nature of the assay: 125I-insulin competition binding assay on solubilised purified receptor.

Assay [3] deals with adipocytes. As to the kind of experiment: 3H-glucose uptake into adipocytes (fat cell assay, FFC). It counts as cell-based, Mouse. Set-up: key to FFC: 0 is no effect; + is agonist; - is antagonist.

Chain of human IGF-1 receptor (HIGF-1R) (P08069 31-736 limits assumed): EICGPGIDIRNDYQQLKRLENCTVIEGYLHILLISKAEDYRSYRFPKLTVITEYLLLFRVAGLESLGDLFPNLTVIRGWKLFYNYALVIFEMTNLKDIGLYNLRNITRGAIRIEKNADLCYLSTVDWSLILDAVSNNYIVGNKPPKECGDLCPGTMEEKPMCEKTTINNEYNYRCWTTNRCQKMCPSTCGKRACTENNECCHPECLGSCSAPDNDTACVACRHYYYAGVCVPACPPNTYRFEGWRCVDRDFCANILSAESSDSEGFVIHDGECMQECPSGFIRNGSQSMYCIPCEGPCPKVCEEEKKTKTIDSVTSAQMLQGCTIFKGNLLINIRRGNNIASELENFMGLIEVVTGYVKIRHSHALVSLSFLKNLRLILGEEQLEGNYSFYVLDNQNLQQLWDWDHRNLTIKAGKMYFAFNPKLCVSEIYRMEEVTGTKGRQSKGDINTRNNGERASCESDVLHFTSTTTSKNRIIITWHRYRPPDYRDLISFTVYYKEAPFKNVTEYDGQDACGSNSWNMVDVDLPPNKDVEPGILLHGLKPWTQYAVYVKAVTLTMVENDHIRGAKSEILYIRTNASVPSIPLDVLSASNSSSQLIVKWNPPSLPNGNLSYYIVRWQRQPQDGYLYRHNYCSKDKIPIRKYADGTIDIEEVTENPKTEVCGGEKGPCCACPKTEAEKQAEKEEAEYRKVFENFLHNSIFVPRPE
Chain of human IGF-1 receptor (HIGF-1R) (P08069 741-1367 limits assumed): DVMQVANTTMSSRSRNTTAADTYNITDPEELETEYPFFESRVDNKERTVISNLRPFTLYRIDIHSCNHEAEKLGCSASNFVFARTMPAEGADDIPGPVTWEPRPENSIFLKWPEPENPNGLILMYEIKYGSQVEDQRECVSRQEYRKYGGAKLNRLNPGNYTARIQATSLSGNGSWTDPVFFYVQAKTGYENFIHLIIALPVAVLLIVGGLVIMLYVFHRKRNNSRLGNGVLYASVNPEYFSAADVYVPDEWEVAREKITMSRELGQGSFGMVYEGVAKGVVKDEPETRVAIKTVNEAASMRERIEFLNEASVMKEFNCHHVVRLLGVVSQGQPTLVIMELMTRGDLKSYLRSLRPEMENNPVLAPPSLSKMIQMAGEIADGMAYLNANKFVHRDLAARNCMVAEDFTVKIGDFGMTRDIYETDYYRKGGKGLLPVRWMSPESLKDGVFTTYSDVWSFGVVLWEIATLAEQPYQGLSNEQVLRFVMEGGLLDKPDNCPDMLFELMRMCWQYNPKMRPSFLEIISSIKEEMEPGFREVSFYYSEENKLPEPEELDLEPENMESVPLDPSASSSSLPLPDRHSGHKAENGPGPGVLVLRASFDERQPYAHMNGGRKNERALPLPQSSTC

As for `CC[C@H](C)[C@H](NC(=O)[C@@H](N)CCCCN)C(=O)NCC(=O)NCC(=O)N[C@@H](CCC(N)=O)C(=O)NCC(=O)N[C@@H](CCC(N)=O)C(=O)N[C@@H](Cc1c[nH]cn1)C(=O)N[C@@H](CCC(N)=O)C(=O)N[C@@H](CC(=O)O)C(=O)NCC(=O)N[C@@H](CC(N)=O)C(=O)N[C@@H](Cc1ccccc1)C(=O)N[C@@H](Cc1ccc(O)cc1)C(=O)N[C@@H](CC(=O)O)C(=O)N[C@@H](Cc1c[nH]c2ccccc12)C(=O)N[C@@H](Cc1ccccc1)C(=O)N[C@H](C(=O)N[C@@H](CCC(=O)O)C(=O)N[C@@H](C)C(=O)N[C@@H](CC(C)C)C(=O)N[C@@H](C)C(=O)N[C@@H](CCCCN)C(=O)N[C@@H](CCCCNC(=O)CCCC[C@@H]1SC[C@@H]2NC(=O)N[C@@H]21)C(N)=O)C(C)C` [Clone D101] (H-KIGGQGQHQDGNFYDWFVEALAKK(Biotin)-NH2), in assay [1], the Kd came out at 13 µM.
As to `CC(C)C[C@H](NC(=O)[C@H](C)NC(=O)[C@H](Cc1c[nH]c2ccccc12)NC(=O)[C@H](CO)NC(=O)[C@H](Cc1c[nH]cn1)NC(=O)CNC(=O)[C@@H](N)CCCCN)C(=O)N[C@H](C(=O)N[C@@H](CCCNC(=N)N)C(=O)N[C@@H](Cc1c[nH]cn1)C(=O)N[C@H](C(=O)N[C@@H](CC(=O)O)C(=O)N[C@@H](CCCNC(=N)N)C(=O)N[C@@H](CC(C)C)C(=O)N[C@@H](Cc1ccccc1)C(=O)N[C@@H](Cc1ccc(O)cc1)C(=O)N[C@@H](CCC(=O)O)C(=O)N[C@@H](Cc1c[nH]c2ccccc12)C(=O)N[C@@H](Cc1ccccc1)C(=O)N[C@@H](CC(=O)O)C(=O)N[C@@H](CC(C)C)C(=O)N[C@@H](CCCCN)C(=O)N[C@@H](CCCCNC(=O)CCCC[C@@H]1SC[C@@H]2NC(=O)N[C@@H]21)C(N)=O)C(C)C)C(C)C` [Clone D104] (H-KGHSWALVRHVDRLFYEWFDLKK(Biotin)-NH2), the results for the Kd in assay [2] (read-out: Kd (µM) HIR) and in assay [1] were 20 µM and over 20 µM, respectively.
`C[C@@H](O)[C@H](NC(=O)[C@@H]1CCCN1C(=O)[C@H](CCCCN)NC(=O)[C@H](CC(=O)O)NC(=O)[C@H](CCCNC(=N)N)NC(=O)[C@@H](N)CCCCN)C(=O)N[C@@H](CC(=O)O)C(=O)N[C@@H](CCC(N)=O)C(=O)N[C@@H](CCC(=O)O)C(=O)N[C@@H](CCC(=O)O)C(=O)N[C@@H](CCC(N)=O)C(=O)N[C@@H](CC(N)=O)C(=O)N[C@@H](Cc1c[nH]c2ccccc12)C(=O)N[C@@H](CO)C(=O)N[C@@H](Cc1ccccc1)C(=O)N[C@@H](Cc1ccc(O)cc1)C(=O)N[C@@H](CCC(=O)O)C(=O)N[C@@H](Cc1c[nH]c2ccccc12)C(=O)N[C@@H](Cc1ccccc1)C(=O)N[C@@H](CCCNC(=N)N)C(=O)N[C@@H](Cc1c[nH]cn1)C(=O)N[C@@H](CCCCN)C(=O)N[C@@H](CCCCNC(=O)CCCC[C@@H]1SC[C@@H]2NC(=O)N[C@@H]21)C(N)=O` [Clone D105] (H-KRDKPTDQEEQNWSFYEWFRHKK(Biotin)-NH2): the Kd worked out at 2.8 µM in assay [2] (read-out: Kd (µM) HIR) and 12 µM in assay [1].
Taken in the same sequence, the figures for `CC(C)C[C@H](NC(=O)[C@H](CCC(N)=O)NC(=O)[C@H](CCC(N)=O)NC(=O)[C@H](CO)NC(=O)[C@H](CCCNC(=N)N)NC(=O)[C@H](CS)NC(=O)[C@H](CC(N)=O)NC(=O)[C@H](Cc1c[nH]c2ccccc12)NC(=O)[C@H](Cc1ccccc1)NC(=O)[C@@H](NC(=O)[C@@H](N)CCCCN)C(C)C)C(=O)N[C@@H](CC(=O)O)C(=O)N[C@@H](Cc1ccccc1)C(=O)N[C@@H](Cc1ccc(O)cc1)C(=O)N[C@@H](CCC(=O)O)C(=O)N[C@@H](Cc1c[nH]c2ccccc12)C(=O)N[C@@H](Cc1ccccc1)C(=O)N[C@@H](CCC(=O)O)C(=O)N[C@@H](CCC(N)=O)C(=O)N[C@@H](C)C(=O)N[C@@H](C)C(=O)N[C@@H](CCCCN)C(=O)N[C@@H](CCCCNC(=O)CCCC[C@@H]1SC[C@@H]2NC(=O)N[C@@H]21)C(N)=O` [Clone D106] (H-KVFWNCRSQQLDFYEWFEQAAKK(Biotin)-NH2) were 0.97 µM and 6.2 µM.
As for `CC(C)C[C@H](NC(=O)[C@H](C)NC(=O)[C@H](C)NC(=O)[C@H](CCC(N)=O)NC(=O)[C@@H]1CCCN1C(=O)[C@@H](NC(=O)[C@@H](NC(=O)[C@H](Cc1ccc(O)cc1)NC(=O)[C@H](Cc1c[nH]cn1)NC(=O)[C@H](CO)NC(=O)[C@H](CCC(=O)O)NC(=O)[C@H](CC(C)C)NC(=O)[C@@H](N)CCCCN)C(C)C)C(C)C)C(=O)N[C@@H](CC(=O)O)C(=O)N[C@@H](CCCNC(=N)N)C(=O)N[C@@H](CC(C)C)C(=O)N[C@@H](Cc1ccccc1)C(=O)N[C@@H](Cc1ccc(O)cc1)C(=O)N[C@@H](CO)C(=O)N[C@@H](Cc1c[nH]c2ccccc12)C(=O)N[C@@H](Cc1ccccc1)C(=O)N[C@@H](CO)C(=O)N[C@@H](CCCCN)C(=O)N[C@@H](CCCCNC(=O)CCCC[C@@H]1SC[C@@H]2NC(=O)N[C@@H]21)C(N)=O` [Clone D107] (H-KLESHYVVPQAALDRLFYSWFSKK(Biotin)-NH2), the Kd in assay [2] (read-out: Kd (µM) HIR) amounted to 1.1 µM; in assay [1] it was 9.7 µM.
In the same order, the values of `CC(C)C[C@H](NC(=O)[C@H](CCC(N)=O)NC(=O)[C@H](CCCNC(=N)N)NC(=O)[C@H](CO)NC(=O)[C@H](Cc1ccccc1)NC(=O)[C@H](Cc1c[nH]c2ccccc12)NC(=O)CNC(=O)[C@H](Cc1ccc(O)cc1)NC(=O)[C@H](Cc1ccccc1)NC(=O)[C@@H](N)CCCCN)C(=O)N[C@@H](CO)C(=O)N[C@@H](CC(C)C)C(=O)N[C@H](C(=O)N1CCC[C@H]1C(=O)N[C@@H](CCCNC(=N)N)C(=O)N[C@@H](CC(=O)O)C(=O)N[C@@H](CC(=O)O)C(=O)N[C@@H](Cc1c[nH]c2ccccc12)C(=O)NCC(=O)N[C@@H](CC(C)C)C(=O)N1CCC[C@H]1C(=O)N[C@@H](CCCCN)C(=O)N[C@@H](CCCCNC(=O)CCCC[C@@H]1SC[C@@H]2NC(=O)N[C@@H]21)C(N)=O)[C@@H](C)O` [Clone D108] (H-KFYGWFSRQLSLTPRDDWGLPKK(Biotin)-NH2) are 2.3 µM and 19 µM.
Take `CC(C)[C@H](NC(=O)[C@H](Cc1ccccc1)NC(=O)[C@H](Cc1c[nH]c2ccccc12)NC(=O)[C@H](CC(=O)O)NC(=O)[C@H](Cc1ccc(O)cc1)NC(=O)[C@H](Cc1ccccc1)NC(=O)[C@H](CC(N)=O)NC(=O)[C@H](CCC(=O)O)NC(=O)[C@H](Cc1c[nH]cn1)NC(=O)[C@@H](N)Cc1ccccc1)C(=O)N[C@@H](CCCNC(=N)N)C(=O)N[C@@H](CCC(N)=O)C(=O)N[C@H](C(=O)N[C@@H](CO)C(=O)N[C@@H](CCCCN)C(=O)N[C@@H](CCCCN)C(=O)O)C(C)C` [Clone D117A]: the Kd in assay [1] came to 5.1 µM.
On to `CC[C@H](C)[C@H](NC(=O)[C@H](CCC(=O)O)NC(=O)[C@@H](N)CCCCN)C(=O)N[C@@H](CCC(=O)O)C(=O)N[C@@H](C)C(=O)N[C@@H](CCC(=O)O)C(=O)N[C@@H](Cc1c[nH]c2ccccc12)C(=O)NCC(=O)N[C@@H](CCCNC(=N)N)C(=O)N[C@H](C(=O)N[C@@H](CCCNC(=N)N)C(=O)N[C@H]1CSSC[C@@H](C(=O)N[C@H](C(=O)NCC(=O)NCC(=O)N[C@@H](CCCCN)C(=O)N[C@@H](CCCCNC(=O)CCCC[C@@H]2SC[C@@H]3NC(=O)N[C@@H]32)C(=O)O)C(C)C)NC(=O)[C@H](CCCNC(=N)N)NC(=O)CNC(=O)[C@H](Cc2ccc(O)cc2)NC(=O)[C@H](C(C)C)NC(=O)[C@H](CC(C)C)NC1=O)C(C)C` [Clone D122A] (H-KEIEAEWGRVRCLVYGRCVGGKK(Biotin)-OH; disulfide 12-18 (inferred); N-terminus assumed), for which the Ratio in assay [1] is listed as over 20.
On the same count and under the same terms, under `CC(C)C[C@@H]1NC(=O)[C@H](CO)NC(=O)[C@H](C)NC(=O)CNC(=O)[C@H](Cc2c[nH]c3ccccc23)NC(=O)[C@H](Cc2ccccc2)NC(=O)[C@H](CC(C)C)NC(=O)[C@H](CCC(=O)O)NC(=O)[C@H](CCC(=O)O)NC(=O)[C@H](CC(C)C)NC(=O)[C@H](C(C)C)NC(=O)[C@@H](NC(=O)[C@H](CC(C)C)NC(=O)[C@H](Cc2c[nH]cn2)NC(=O)[C@@H](N)CCCCN)CSSC[C@@H](C(=O)N[C@@H](CO)C(=O)NCC(=O)N[C@@H](CCCCN)C(=O)N[C@@H](CCCCNC(=O)CCCC[C@@H]2SC[C@@H]3NC(=O)N[C@@H]32)C(=O)O)NC(=O)[C@H](Cc2ccc(O)cc2)NC(=O)CNC(=O)[C@H](Cc2ccccc2)NC1=O` [Clone D124A] (H-KHLCVLEELFWGASLFGYCSGKK(Biotin)-OH; disulfide 4-19 (inferred); N-terminus assumed) stands over 200.
For Ac-FYDWF-NH2 [Clone S184], in assay [3], the FFC is 0. Also, the Kd in assay [2] (read-out: HIR affinity) is over 20 µM.
In the same order, the values of FHENFYDAFVRQVSKK [Clone S222] are 0 and over 20 µM.
Turning to FHENFYDWFVRQASKK-NH2 [Clone S106], in assay [2] (read-out: HIR affinity), the Kd turned out to be 0.42 µM.
The same measure, in the same setting: under FHENFYDWFVRQVAKK-NH2 [Clone S105] stands 0.31 µM.
Still for that read-out and setting: the same measure for FYDWF-NH2 [Clone S165]: over 20 µM; for FYDWFKK-NH2 [Clone S166]: over 20 µM.
On the same count and under the same terms, the same measure for GFREGQRWYWFVAQVT-NH2 [Clone S278]: over 20 µM; for HLSVGEELSWWVALLGQWAR-NH2 [Clone S282]: over 20 µM.
As to LDRQFYRYFQDLLVGFM-NH2 [Clone S260], the Kd in assay [2] (read-out: HIR affinity) was determined as 2.3 µM.
On the same count and under the same terms, the same measure for QAPSNFYDWFVREWDEE-NH2 [Clone S287]: 5.9 µM.
Still for that read-out and setting: the same measure for QSFYDYIEELLGGEWKK-NH2 [Clone S288]: 4.3 µM.
Same read-out and setting: the same measure for RWPNFYGYFESLLTHFS-NH2 [Clone S257]: 14 µM; for TGHRLGLDEQFYWWFRDALSG-NH2 [Clone S265]: 0.11 µM; for WGRSFYRYFETLLAQGI-NH2 [Clone S261]: over 20 µM.
